Measured values from ChEMBL document CHEMBL5291721, “A preclinical secondary pharmacology resource illuminates target-adverse drug reaction associations of marketed drugs” (Nat Commun, 2023).

Legend:
Adenosine receptor A3 = target: T1, Adenosine receptor A3 (Homo sapiens, UniProt P0DMS8)
T1 sequence (P0DMS8 whole entry): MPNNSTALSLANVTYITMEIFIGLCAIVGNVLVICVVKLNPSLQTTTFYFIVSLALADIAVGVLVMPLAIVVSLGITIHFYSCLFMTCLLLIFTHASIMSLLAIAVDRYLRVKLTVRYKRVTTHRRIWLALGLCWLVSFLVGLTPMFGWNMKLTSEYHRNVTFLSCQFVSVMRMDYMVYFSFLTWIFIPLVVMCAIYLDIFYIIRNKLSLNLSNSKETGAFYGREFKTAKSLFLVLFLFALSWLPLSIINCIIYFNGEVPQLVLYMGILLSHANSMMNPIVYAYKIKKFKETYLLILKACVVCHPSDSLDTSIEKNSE

Vasopressin V2 receptor = Vasopressin V2 receptor (Homo sapiens, UniProt P30518)
[1] = target: Voltage-dependent L-type calcium channel subunit alpha-1C (Rattus norvegicus, UniProt P22002); format: functional
Voltage-dependent L-type calcium channel subunit alpha-1C, sequence (P22002 whole entry): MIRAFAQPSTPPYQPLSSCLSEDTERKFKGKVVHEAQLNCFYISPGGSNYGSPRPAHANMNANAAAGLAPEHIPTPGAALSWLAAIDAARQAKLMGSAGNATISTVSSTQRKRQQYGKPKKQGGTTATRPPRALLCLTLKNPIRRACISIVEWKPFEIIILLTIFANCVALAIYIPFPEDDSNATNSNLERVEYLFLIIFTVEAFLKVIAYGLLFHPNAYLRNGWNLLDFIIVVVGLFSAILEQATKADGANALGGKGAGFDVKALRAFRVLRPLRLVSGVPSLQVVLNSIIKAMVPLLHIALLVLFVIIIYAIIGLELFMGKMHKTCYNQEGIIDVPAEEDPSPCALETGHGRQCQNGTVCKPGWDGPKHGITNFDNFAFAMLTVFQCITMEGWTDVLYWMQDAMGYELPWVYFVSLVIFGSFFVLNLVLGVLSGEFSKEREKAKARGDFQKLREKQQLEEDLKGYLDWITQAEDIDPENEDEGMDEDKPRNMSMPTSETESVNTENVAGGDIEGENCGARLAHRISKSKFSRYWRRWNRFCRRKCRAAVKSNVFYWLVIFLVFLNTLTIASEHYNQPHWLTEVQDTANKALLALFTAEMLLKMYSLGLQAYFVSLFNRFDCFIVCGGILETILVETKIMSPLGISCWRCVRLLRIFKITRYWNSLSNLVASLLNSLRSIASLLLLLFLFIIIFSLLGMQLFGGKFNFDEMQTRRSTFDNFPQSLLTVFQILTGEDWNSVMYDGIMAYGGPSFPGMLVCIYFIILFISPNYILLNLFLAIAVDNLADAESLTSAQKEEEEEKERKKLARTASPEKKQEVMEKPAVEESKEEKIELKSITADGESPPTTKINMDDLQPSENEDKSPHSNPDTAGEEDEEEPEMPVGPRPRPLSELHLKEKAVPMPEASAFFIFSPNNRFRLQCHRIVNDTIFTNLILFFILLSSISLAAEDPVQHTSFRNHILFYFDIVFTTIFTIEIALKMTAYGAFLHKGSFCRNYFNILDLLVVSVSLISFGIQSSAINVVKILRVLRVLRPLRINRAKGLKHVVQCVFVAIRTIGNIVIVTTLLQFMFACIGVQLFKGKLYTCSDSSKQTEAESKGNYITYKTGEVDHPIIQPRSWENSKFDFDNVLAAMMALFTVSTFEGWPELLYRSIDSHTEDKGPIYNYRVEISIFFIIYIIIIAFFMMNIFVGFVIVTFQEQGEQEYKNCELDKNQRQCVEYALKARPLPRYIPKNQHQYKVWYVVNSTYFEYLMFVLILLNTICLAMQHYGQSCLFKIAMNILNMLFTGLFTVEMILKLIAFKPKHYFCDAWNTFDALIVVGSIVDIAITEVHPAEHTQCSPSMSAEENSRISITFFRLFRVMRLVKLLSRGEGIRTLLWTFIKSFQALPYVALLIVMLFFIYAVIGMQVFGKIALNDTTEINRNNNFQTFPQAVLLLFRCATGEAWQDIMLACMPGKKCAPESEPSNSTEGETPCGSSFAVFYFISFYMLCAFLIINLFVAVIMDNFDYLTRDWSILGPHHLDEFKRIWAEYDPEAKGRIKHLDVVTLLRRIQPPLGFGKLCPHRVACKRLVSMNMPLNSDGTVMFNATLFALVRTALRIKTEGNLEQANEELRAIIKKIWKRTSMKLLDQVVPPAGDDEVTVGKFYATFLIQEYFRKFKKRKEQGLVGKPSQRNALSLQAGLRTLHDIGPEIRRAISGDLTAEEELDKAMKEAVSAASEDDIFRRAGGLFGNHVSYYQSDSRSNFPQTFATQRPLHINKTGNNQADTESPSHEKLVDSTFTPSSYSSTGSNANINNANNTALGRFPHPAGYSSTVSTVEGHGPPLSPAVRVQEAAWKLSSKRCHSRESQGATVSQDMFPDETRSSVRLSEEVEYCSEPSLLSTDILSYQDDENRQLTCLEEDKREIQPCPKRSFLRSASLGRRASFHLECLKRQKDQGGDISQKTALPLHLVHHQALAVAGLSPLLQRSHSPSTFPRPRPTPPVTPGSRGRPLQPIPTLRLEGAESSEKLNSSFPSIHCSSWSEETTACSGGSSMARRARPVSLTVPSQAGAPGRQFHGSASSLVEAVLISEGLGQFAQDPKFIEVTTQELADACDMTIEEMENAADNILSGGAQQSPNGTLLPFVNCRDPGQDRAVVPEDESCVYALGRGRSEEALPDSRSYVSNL

[2] = target: T2, Muscarinic acetylcholine receptor M1 (Homo sapiens, UniProt P11229); format: functional
T2 sequence (P11229 whole entry): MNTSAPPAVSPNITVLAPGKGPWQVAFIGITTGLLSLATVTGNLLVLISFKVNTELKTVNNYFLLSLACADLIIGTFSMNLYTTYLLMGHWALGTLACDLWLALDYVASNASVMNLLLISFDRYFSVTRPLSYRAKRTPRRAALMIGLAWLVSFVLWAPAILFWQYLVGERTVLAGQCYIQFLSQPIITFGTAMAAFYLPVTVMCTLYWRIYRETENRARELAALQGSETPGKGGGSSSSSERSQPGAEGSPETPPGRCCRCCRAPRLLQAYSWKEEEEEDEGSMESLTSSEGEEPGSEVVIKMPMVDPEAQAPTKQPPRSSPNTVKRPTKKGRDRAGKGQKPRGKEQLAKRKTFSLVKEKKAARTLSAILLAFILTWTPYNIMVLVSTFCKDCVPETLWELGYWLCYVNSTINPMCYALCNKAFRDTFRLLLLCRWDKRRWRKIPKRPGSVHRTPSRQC

Cannabinoid receptor 1 [3] = target: T3, Cannabinoid receptor 1 (Homo sapiens, UniProt P21554); format: functional, cell-based
T3 sequence (P21554 whole entry): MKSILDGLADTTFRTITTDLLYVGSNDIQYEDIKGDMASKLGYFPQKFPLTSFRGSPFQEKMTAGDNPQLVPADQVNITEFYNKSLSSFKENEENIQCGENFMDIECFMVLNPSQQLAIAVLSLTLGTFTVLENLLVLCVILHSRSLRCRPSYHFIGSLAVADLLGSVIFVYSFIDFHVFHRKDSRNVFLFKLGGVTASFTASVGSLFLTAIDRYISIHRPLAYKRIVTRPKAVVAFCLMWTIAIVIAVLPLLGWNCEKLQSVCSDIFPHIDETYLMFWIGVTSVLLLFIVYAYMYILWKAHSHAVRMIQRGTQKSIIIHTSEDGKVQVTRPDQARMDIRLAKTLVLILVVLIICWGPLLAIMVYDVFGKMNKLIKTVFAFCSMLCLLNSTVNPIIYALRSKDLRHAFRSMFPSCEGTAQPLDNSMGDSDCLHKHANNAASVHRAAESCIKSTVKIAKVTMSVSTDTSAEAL

Cannabinoid receptor 1 [4] = target: T3, Cannabinoid receptor 1; format: functional, cell-based; remark: listed apart in the source
Endothelin-1 receptor = target: T4, Endothelin-1 receptor (Homo sapiens, UniProt P25101)
T4 sequence (P25101 whole entry): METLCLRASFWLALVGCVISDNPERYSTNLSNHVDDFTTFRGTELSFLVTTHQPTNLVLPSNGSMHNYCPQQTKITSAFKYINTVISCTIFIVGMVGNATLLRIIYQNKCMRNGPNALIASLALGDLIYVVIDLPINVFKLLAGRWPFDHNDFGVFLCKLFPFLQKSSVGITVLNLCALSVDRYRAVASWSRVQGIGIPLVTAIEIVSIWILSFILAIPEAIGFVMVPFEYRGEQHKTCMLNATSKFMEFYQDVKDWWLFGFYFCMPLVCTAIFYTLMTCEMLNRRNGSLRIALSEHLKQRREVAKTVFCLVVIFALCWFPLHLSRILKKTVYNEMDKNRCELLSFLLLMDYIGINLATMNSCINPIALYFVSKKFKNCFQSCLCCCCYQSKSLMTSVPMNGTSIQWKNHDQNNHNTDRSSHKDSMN

[5] = target: Growth hormone secretagogue receptor type 1 (Homo sapiens, UniProt Q92847)
Growth hormone secretagogue receptor type 1, sequence (Q92847 whole entry): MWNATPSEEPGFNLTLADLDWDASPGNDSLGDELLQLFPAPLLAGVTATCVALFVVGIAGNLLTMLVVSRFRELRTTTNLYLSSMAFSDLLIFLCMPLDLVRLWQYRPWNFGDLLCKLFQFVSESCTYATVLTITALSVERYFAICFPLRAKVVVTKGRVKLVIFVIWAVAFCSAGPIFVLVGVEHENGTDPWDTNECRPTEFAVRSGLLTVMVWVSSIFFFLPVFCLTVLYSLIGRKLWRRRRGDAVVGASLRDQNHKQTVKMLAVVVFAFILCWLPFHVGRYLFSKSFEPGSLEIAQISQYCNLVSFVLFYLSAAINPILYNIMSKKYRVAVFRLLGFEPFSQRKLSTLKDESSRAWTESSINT

[6] = target: Glutamate receptor ionotropic, NMDA 1 (Rattus norvegicus, UniProt P35439)
[7] = target: T5, 5-hydroxytryptamine receptor 1A (Homo sapiens, UniProt P08908); format: functional, cell-based
T5 sequence (P08908 whole entry): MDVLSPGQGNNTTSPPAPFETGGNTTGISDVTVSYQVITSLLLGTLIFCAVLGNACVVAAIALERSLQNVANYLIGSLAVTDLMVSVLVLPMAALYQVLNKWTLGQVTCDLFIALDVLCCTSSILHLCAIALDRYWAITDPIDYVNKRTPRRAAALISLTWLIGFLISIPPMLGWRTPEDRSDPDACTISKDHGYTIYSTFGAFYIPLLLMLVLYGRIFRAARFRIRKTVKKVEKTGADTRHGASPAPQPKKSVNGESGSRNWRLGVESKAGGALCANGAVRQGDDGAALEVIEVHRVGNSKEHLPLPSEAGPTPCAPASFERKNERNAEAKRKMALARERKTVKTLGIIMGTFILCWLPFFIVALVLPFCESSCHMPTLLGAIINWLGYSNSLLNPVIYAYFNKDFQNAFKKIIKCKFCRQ

[8] = target: T5, 5-hydroxytryptamine receptor 1A; format: functional, cell-based; remark: listed apart in the source
[9] = target: T6, 5-hydroxytryptamine receptor 2B (Homo sapiens, UniProt P41595); format: functional, cell-based
T6 sequence (P41595 whole entry): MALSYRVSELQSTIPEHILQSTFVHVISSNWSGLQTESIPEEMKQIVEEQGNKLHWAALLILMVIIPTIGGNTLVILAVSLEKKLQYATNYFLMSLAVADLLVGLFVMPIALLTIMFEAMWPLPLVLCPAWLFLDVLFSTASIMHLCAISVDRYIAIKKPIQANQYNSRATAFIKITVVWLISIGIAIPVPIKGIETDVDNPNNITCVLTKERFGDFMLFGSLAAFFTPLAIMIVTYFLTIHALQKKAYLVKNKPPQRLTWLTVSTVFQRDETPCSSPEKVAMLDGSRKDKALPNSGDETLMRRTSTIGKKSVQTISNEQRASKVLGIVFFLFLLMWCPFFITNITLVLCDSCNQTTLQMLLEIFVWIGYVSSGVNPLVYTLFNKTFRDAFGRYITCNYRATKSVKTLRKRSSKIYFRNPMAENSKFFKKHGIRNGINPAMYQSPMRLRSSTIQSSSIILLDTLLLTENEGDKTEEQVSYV

[10] = target: T6, 5-hydroxytryptamine receptor 2B; format: functional, cell-based; remark: listed apart in the source
Mu-type opioid receptor = Mu-type opioid receptor (Homo sapiens, UniProt P35372); assay: biochemical; format: functional
[11] = target: 3',5'-cyclic-AMP phosphodiesterase 4D (Homo sapiens, UniProt Q08499); format: functional
3',5'-cyclic-AMP phosphodiesterase 4D, sequence (Q08499 whole entry): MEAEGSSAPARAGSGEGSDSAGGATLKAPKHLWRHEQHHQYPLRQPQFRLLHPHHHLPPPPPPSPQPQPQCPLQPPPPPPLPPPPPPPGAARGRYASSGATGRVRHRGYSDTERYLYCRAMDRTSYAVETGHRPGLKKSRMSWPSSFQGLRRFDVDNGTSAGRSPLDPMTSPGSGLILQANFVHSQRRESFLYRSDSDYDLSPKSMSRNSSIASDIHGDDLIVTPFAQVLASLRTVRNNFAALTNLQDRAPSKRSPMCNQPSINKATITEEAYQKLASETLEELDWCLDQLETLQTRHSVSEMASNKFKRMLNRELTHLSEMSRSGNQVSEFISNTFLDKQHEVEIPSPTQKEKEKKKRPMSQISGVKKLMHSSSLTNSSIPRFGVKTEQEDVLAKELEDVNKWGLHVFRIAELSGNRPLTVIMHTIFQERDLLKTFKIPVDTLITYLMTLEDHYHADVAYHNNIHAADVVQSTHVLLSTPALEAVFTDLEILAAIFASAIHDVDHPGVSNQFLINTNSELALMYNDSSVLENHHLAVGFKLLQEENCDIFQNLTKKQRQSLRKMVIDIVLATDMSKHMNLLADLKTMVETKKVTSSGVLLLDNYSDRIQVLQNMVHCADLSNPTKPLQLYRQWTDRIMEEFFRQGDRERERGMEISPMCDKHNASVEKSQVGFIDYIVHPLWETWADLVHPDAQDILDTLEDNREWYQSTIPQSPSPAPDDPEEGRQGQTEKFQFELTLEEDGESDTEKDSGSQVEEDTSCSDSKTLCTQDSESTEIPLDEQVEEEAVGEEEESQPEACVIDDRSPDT

[12] = target: T7, Equilibrative nucleoside transporter 1 (Homo sapiens, UniProt Q99808)
T7 sequence (Q99808 whole entry): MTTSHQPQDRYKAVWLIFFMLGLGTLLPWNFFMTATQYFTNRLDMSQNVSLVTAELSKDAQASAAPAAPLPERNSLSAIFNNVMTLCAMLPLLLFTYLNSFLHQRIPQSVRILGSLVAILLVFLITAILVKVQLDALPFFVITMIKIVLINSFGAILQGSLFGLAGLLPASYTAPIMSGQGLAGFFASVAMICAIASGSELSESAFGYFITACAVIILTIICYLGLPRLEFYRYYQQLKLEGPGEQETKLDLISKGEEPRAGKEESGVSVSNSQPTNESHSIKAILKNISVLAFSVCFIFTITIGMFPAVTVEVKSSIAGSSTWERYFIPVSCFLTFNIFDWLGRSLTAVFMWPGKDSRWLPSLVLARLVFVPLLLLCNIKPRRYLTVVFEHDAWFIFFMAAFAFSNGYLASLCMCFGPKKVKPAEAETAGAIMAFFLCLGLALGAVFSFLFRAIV

[13] = target: Sodium-dependent serotonin transporter (Homo sapiens, UniProt P31645)
Sodium-dependent serotonin transporter, sequence (P31645 whole entry): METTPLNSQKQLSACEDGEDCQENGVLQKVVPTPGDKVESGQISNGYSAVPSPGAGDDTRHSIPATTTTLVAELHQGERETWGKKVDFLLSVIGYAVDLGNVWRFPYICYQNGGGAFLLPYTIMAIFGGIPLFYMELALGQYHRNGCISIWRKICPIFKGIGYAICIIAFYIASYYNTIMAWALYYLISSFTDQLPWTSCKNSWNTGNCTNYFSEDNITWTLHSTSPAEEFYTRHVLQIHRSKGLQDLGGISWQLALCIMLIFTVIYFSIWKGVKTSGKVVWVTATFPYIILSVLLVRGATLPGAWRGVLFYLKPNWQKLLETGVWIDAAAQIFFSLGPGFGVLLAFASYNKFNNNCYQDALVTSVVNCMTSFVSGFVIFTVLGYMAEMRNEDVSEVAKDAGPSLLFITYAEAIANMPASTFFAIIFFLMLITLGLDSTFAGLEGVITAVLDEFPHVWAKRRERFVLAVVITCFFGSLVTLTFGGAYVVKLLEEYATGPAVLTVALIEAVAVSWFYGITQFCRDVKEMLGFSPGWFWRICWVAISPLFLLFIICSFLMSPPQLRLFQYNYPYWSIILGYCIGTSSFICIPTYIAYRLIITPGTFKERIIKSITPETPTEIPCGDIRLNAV
Further: assay procedure not described here.

| SMILES | AC50 (Adenosine receptor A3) [µM] | AC50 (Vasopressin V2 receptor) [µM] | AC50 [1] [µM] | AC50 [2] [µM] | AC50 (Cannabinoid receptor 1 [3]) [µM] | AC50 (Cannabinoid receptor 1 [4]) [µM] | AC50 (Endothelin-1 receptor) [µM] | AC50 [5] [µM] | AC50 [6] [µM] | AC50 [7] [µM] | AC50 [8] [µM] | AC50 [9] [µM] | AC50 [10] [µM] | AC50 (Mu-type opioid receptor) [µM] | AC50 [11] [µM] | AC50 [12] [µM] | AC50 [13] [µM] |
| --- | --- | --- | --- | --- | --- | --- | --- | --- | --- | --- | --- | --- | --- | --- | --- | --- | --- |
| O=C(C[S+]([O-])C(c1ccccc1)c1ccccc1)NO (stereo not drawn) | > 30 | > 30 | > 30 | > 30 | > 30 | > 30 | > 30 | > 30 | > 30 | > 30 | > 30 | > 30 | > 30 | > 30 | 8.9 | > 30 | > 30 |
| COc1ccc2cccc(CCNC(C)=O)c2c1 [AGOMELATINE] | > 30 | > 30 | > 10 | > 10 | > 30 | > 30 | > 30 | > 30 | > 10 | > 30 | > 10 | > 30 | 2.07 | > 30 | > 30 | > 30 | > 10 |
| CCC(C(=O)O)c1ccc(CC(C)C)cc1 (stereo not drawn) [BUTIBUFEN] | > 30 | > 30 | > 30 | > 30 | > 30 | > 30 | > 30 | > 30 | > 30 | > 30 | > 30 | > 30 | > 30 | > 30 | > 30 | > 30 | > 30 |
| CCCCCOC(=O)Nc1nc(=O)n([C@@H]2O[C@H](C)[C@@H](O)[C@H]2O)cc1F [CAPECITABINE] | > 30 | > 30 | – | > 30 | > 30 | > 30 | > 30 | > 30 | > 30 | > 30 | > 30 | > 30 | > 30 | > 30 | > 30 | > 30 | > 30 |
| O=C1CN=C(c2ccccc2)c2cc(Cl)ccc2N1CC(F)(F)F [HALAZEPAM] | 26 | > 30 | – | > 30 | > 30 | > 30 | > 30 | > 30 | > 30 | > 30 | > 30 | > 30 | > 30 | 1.2 | > 30 | > 30 | > 30 |
